From PMC4890880 (ACS infectious diseases, 2016)
Read-outs that look alike come from different tables or passages of the source.

Test system: HepG2-A16-CD81EGFP cells
Conditions: for IC50: read-out: Tox_IC50, HepG2 cytotoxicity
[1] = sheet 2nd round, maximal inhibition in dose response
[2] = 2nd round, maximal inhibition in dose series

| Compound | IC50 (sheet 2nd round) | Tox_max_inhibition (%) [1] | other results |
| --- | --- | --- | --- |
| O=C(C[C@@H]1C[C@H]2c3cc(NC(=O)c4ccc5c(c4)OCO5)ccc3O[C@H]2[C@@H](CO)O1)NCc1ccc(Oc2ccccc2)cc1 [BRD-K67862512-001-01-7] | > 10 µM | 23% |  |
| Cc1ccccc1-c1ccc2c(c1)O[C@H](CN(C)C(=O)Nc1ccc(C(F)(F)F)cc1)[C@@H](C)CN([C@@H](C)CO)S2(=O)=O [BRD-K68538844-001-01-1] | > 10 µM | 35% |  |
| C[C@@H]1CN([C@@H](C)CO)C(=O)c2cc(NC(=O)Nc3ccc4c(c3)OCO4)ccc2O[C@@H](C)CCCCO[C@H]1CN(C)S(=O)(=O)c1ccccc1 [BRD-K69357983-001-01-6] |  |  | Tox_max_inhibition (%) [2]: 9%; IC50 (2nd round, unit inferred): > 10 µM |
| N#C[C@H]1[C@H](c2ccc(-c3cccc(F)c3)cc2)[C@@H](CO)N1C(=O)NC1CCCC1 [BRD-K69441790-001-01-1] | 9.7 µM | 57% |  |
| Fc1cccc(CN2C[C@@H]3N[C@H](C2)C3c2ccc(/C=C/c3ccccc3)cc2)c1 (stereo partly drawn) [BRD-K69682028-019-01-6] |  |  | IC50 (sheet "2nd round"): > 10 µM; Tox_max_inhibition (%) (sheet "2nd round"): 16% |
| CCCNC(=O)N1[C@H](C#N)[C@@H](c2ccccc2C2=CCCCC2)[C@@H]1CO [BRD-K70760948-001-01-2] |  |  | Tox_max_inhibition (%) [2]: 10%; IC50 (2nd round, unit inferred): > 10 µM |
| C[C@H](CO)N1C[C@H](C)[C@@H](CN(C)Cc2ccccc2)Oc2c(NC(=O)Cc3cn(C)c4ccccc34)cccc2C1=O [BRD-K71196168-001-01-1] |  |  | IC50 (sheet "2nd round"): > 10 µM; Tox_max_inhibition (%) (sheet "2nd round"): 44% |
| COc1ccccc1C#Cc1ccc([C@H]2[C@@H](C#N)N(C(=O)C3CCCC3)[C@H]2CO)cc1 [BRD-K71730412-001-01-1] | > 10 µM | 13% |  |
| C[C@@H]1CN([C@@H](C)CO)C(=O)c2cc(N(C)C)ccc2O[C@@H](C)CCCCO[C@H]1CN(C)S(=O)(=O)c1ccc(F)cc1 [BRD-K72173400-001-01-7] | > 10 µM | 6% |  |
| COc1ccccc1-c1ccc2c(c1)[C@@H]1[C@@H](CCN1C(=O)C1CCC1)[C@H](CO)N2 [BRD-K72492940-001-01-8] | > 10 µM | 18% |  |
| N#Cc1cccc(-c2ccc3c(c2)[C@H]2[C@H](CCN2S(=O)(=O)c2ccc(F)cc2)[C@@H](CO)N3)c1 [BRD-K73006286-001-01-7] | > 10 µM | 15% |  |
| C[C@H]1CN([C@@H](C)CO)C(=O)c2cccc(NC(=O)c3ccc(-c4nccs4)cc3)c2O[C@H]1CN(C)C(=O)Nc1ccc(C(F)(F)F)cc1 [BRD-K73614094-001-01-0] |  |  | Tox_max_inhibition (%) [2]: 12%; IC50 (2nd round, unit inferred): > 10 µM |
| CCCC(=O)N1CCC2(CC1)CN(S(=O)(=O)c1ccc(C)cc1)[C@@H](CO)c1[nH]c3cc(OC)ccc3c12 [BRD-K73703617-001-01-9] |  |  | Tox_max_inhibition (%) [2]: 12%; IC50 (2nd round, unit inferred): > 10 µM |
| CCCNC(=O)N1[C@H](C#N)[C@H](c2ccccc2-c2cccc(C)c2)[C@@H]1CO [BRD-K74392214-001-01-7] | > 10 µM | 7.44% |  |
| N#C[C@H]1N[C@H](CO)[C@H]1c1ccc(C#CC2CCCCC2)cc1 [BRD-K74656908-001-01-6] | > 10 µM | 6% |  |
| C[C@H](CO)N1C[C@H](C)[C@H](CN(C)C(=O)Nc2ccc(C(F)(F)F)cc2)Oc2c(NC(=O)c3ccc(-c4nccs4)cc3)cccc2C1=O [BRD-K74949371-001-01-3] | > 10 µM | 6.39% |  |
| OC[C@@H]1[C@H](c2ccc(-c3ccc(F)cc3)cc2)[C@@H](CNC2CCCC2)N1CCC(F)(F)F [BRD-K76178468-001-01-1] | > 10 µM | 22% |  |
| CCCNC(=O)Nc1ccc2c(c1)OC[C@@H](C)N(Cc1ccccc1)C[C@@H](C)[C@H](OC)CN(C)C2=O [BRD-K76980944-001-01-4] |  |  | Tox_max_inhibition (%) [2]: 6%; IC50 (2nd round, unit inferred): > 10 µM |
| C[C@H](CO)N1C[C@H](C)[C@H](CN(C)C(=O)C2CCCCC2)Oc2ncc(C#Cc3cccc(F)c3)cc2C1=O [BRD-K77264696-001-01-2] | > 10 µM | 30% |  |
| C[C@@H]1CN([C@@H](C)CO)C(=O)c2cc(C#Cc3ccccc3)cnc2O[C@H]1CN(C)C(=O)c1ccccc1 [BRD-K77826636-001-01-1] |  |  | Tox_max_inhibition (%) [2]: 20%; IC50 (2nd round, unit inferred): > 10 µM |
| C[C@H](CO)N1C[C@H](C)[C@@H](CN(C)S(=O)(=O)c2ccccc2)OCCCC[C@H](C)Oc2ccc(NC(=O)Nc3ccc4c(c3)OCO4)cc2C1=O [BRD-K78605373-001-01-5] |  |  | Tox_max_inhibition (%) [2]: 10%; IC50 (2nd round, unit inferred): > 10 µM |
| C[C@@H]1CCCCO[C@@H](CN(C)C(=O)Nc2cccc3ccccc23)[C@H](C)CN([C@H](C)CO)C(=O)c2cc(NC(=O)CCC(F)(F)F)ccc2O1 [BRD-K78692607-001-01-1] | > 10 µM | 10% |  |
| COc1ccc(NC(=O)N2CCCCN3[C@H](CN(C)C)[C@H](c4ccc(C#Cc5ccccc5)cc4)[C@@H]3C2)cc1 [BRD-K78727929-001-08-1] | 8.47 µM | 100% |  |
| N#C[C@H]1N[C@H](CO)[C@H]1c1ccc(C#Cc2ccccc2F)cc1 [BRD-K80648041-001-01-3] | > 10 µM | 11% |  |

| Compound | IC50 (sheet 2nd round) | Tox_max_inhibition (%) [1] | other results |
| --- | --- | --- | --- |
| CCCNC(=O)N1[C@H](C#N)[C@H](c2ccc(-c3cccc(OC)c3)cc2)[C@@H]1CO [BRD-K80906650-001-01-7] |  |  | IC50 (sheet "2nd round"): > 10 µM; Tox_max_inhibition (%) (sheet "2nd round"): 45% |
| CCCNC(=O)N1[C@H](C#N)[C@H](c2ccc(-c3ccccc3F)cc2)[C@@H]1CO [BRD-K81164606-001-02-5] |  |  | Tox_max_inhibition (%) [2]: 43%; IC50 (2nd round, unit inferred): > 10 µM |
| N#C[C@H]1[C@@H](c2ccc(C3=CCCCC3)cc2)[C@@H](CO)N1C(=O)Nc1ccccc1F [BRD-K81680265-001-01-4] |  |  | Tox_max_inhibition (%) [2]: 11%; IC50 (2nd round, unit inferred): > 10 µM |
| C(=C\c1ccc(C2[C@@H]3CN(Cc4nccs4)C[C@H]2N3)cc1)/c1ccccc1 (stereo partly drawn) [BRD-K82593502-019-01-3] |  |  | Tox_max_inhibition (%) [2]: 13%; IC50 (2nd round, unit inferred): > 10 µM |
| COc1ccc(NC(=O)N2CCCCN3[C@H](CO)[C@H](c4ccc(C#Cc5ccccc5)cc4)[C@@H]3C2)cc1 [BRD-K83953444-001-02-5] | > 10 µM | 55% |  |
| O=C(Nc1ccccc1F)N1CCCCN2[C@H](CO)[C@H](c3ccc(/C=C/c4ccccc4)cc3)[C@@H]2C1 [BRD-K85670919-001-01-1] | > 10 µM | 13% |  |
| O=C(NCC[C@H]1CC[C@H](NC(=O)c2ccccc2F)[C@@H](CO)O1)c1cnccn1 [BRD-K85850546-001-01-0] | > 10 µM | 9% |  |
| N#C[C@H]1[C@@H](c2ccc(-c3cccnc3)cc2)[C@@H](CO)N1C(=O)Nc1ccc(F)cc1 [BRD-K86354270-001-02-2] | > 10 µM | 14% |  |
| COc1ccccc1C#Cc1ccc([C@H]2[C@@H](C#N)N(C(=O)C3CCCCC3)[C@H]2CO)cc1 [BRD-K87117984-001-01-1] | 9.79 µM | 57% |  |
| C[C@@H]1CCCCO[C@@H](CN(C)S(=O)(=O)c2ccccc2)[C@H](C)CN([C@H](C)CO)C(=O)c2cc(NC(=O)Nc3ccc4c(c3)OCO4)ccc2O1 [BRD-K87351697-001-01-4] | > 10 µM | 5% |  |
| C[C@@H]1CN([C@@H](C)CO)C(=O)Cc2cc(NC(=O)C3CCCCC3)ccc2O[C@H]1CN(C)Cc1ccc(Cl)c(Cl)c1 [BRD-K87663528-001-01-7] |  |  | IC50 (sheet "2nd round"): > 10 µM; Tox_max_inhibition (%) (sheet "2nd round"): 58% |
| CO[C@@H]1CN(C)C(=O)c2ccc(NC(=O)Nc3ccccc3F)cc2OC[C@@H](C)N(CC2CC2)C[C@H]1C [BRD-K88085458-001-01-6] |  |  | IC50 (sheet "2nd round"): > 10 µM; Tox_max_inhibition (%) (sheet "2nd round"): 6% |
| CCCNC(=O)N1[C@H](C#N)[C@H](c2ccc(-c3ccccc3F)cc2)[C@H]1CO [BRD-K88402291-001-01-4] |  |  | IC50 (sheet "2nd round"): > 10 µM; Tox_max_inhibition (%) (sheet "2nd round"): 3% |
| O=C(Nc1ccccc1F)N1CCCCN2[C@H](CO)[C@H](c3ccc(/C=C/c4ccccc4)cc3)[C@H]2C1 [BRD-K88581921-001-01-3] | > 10 µM | 3% |  |
| O=C(Nc1ccc(Cl)cc1)N1C[C@@H]2[C@H](c3ccccc31)[C@@H](CO)N2CC1CCCCC1 [BRD-K89605819-001-01-4] |  |  | IC50 (sheet "2nd round"): > 10 µM; Tox_max_inhibition (%) (sheet "2nd round"): 4.75% |
| N#C[C@@H]1[C@H](c2ccccc2C2=CCCCC2)[C@H](CO)N1S(=O)(=O)c1ccccc1 [BRD-K90570429-001-01-9] |  |  | IC50 (sheet "2nd round"): > 10 µM; Tox_max_inhibition (%) (sheet "2nd round"): 8% |
| CO[C@@H]1CN(C)C(=O)c2ccc(NC(=O)NC(C)C)cc2OC[C@@H](C)N(Cc2ccccc2)C[C@H]1C [BRD-K91191258-001-01-9] | > 10 µM | 9% |  |
| CN1C(=O)c2cc(NC(=O)c3ccc(C(F)(F)F)cc3)ccc2OC[C@H]2O[C@H](CC(=O)NCc3ccc4c(c3)OCO4)CC[C@@H]21 [BRD-K92009254-001-01-6] |  |  | IC50 (sheet "2nd round"): 8.97 µM; Tox_max_inhibition (%) (sheet "2nd round"): 53% |
| Cc1ccccc1-c1ccc([C@@H]2[C@H](CO)N3CCCCN(S(=O)(=O)Cc4ccccc4)C[C@@H]23)cc1 [BRD-K92048968-001-01-1] | > 10 µM | 7% |  |
| C[C@@H]1CN([C@@H](C)CO)C(=O)c2cccc(NC(=O)c3cnccn3)c2O[C@@H]1CN(C)Cc1ccc(-c2ccccc2)cc1 [BRD-K92545585-001-01-9] | > 10 µM | 4.65% |  |
| C[C@@H]1CCCCO[C@H](CN(C)S(=O)(=O)c2ccccc2)[C@@H](C)CN([C@@H](C)CO)C(=O)c2cc(NC(=O)Nc3ccc4c(c3)OCO4)ccc2O1 [BRD-K94107458-001-01-0] |  |  | IC50 (sheet "2nd round"): > 10 µM; Tox_max_inhibition (%) (sheet "2nd round"): 5% |
| O=C(Nc1ccc(F)cc1)N1C[C@@H]2[C@H](c3ccccc31)[C@@H](CO)N2Cc1ccccc1Cl [BRD-K95406835-001-01-9] | > 10 µM | 4.68% |  |
| O=C(C1CC1)N1C[C@@H]2N[C@H](C1)C2c1ccc(-c2ccccc2F)cc1 (stereo partly drawn) [BRD-K95724677-019-01-8] | 3.72 µM | 93% |  |
| C[C@@H]1CCCCO[C@@H](CN(C)Cc2ccc(Cl)c(Cl)c2)[C@@H](C)CN([C@@H](C)CO)C(=O)c2cc(NS(=O)(=O)c3cccs3)ccc2O1 [BRD-K97609851-001-01-5] | > 10 µM | 39% |  |
